Assay results as given in PMC9134235 (ACS Omega, 2022).

Key:
DOR = DOR (Homo sapiens, UniProt P41143); test: DOR-Tango β-arrestin2 recruitment, dose–response; type: cell-based; details: for reversal of the agonist activity of EIPA: 10 μM EIPA, increasing antagonist; for agonist / allosteric activity at DOR: 10 μM modulator, in the presence or absence of DADLE; for effect of extracellular Na+ on agonistic activity: reducing extracellular Na+ to 30 mM
different GPCRs = details: cited from earlier work
DOR D95A2.50 = DOR D95A2.50 (Homo sapiens, UniProt P41143, D95A); test: Mutant DOR-Tango β-arrestin2 recruitment; type: cell-based; details: 10 μM modulator
DOR D95A2.50, sequence (P41143 whole entry D95A): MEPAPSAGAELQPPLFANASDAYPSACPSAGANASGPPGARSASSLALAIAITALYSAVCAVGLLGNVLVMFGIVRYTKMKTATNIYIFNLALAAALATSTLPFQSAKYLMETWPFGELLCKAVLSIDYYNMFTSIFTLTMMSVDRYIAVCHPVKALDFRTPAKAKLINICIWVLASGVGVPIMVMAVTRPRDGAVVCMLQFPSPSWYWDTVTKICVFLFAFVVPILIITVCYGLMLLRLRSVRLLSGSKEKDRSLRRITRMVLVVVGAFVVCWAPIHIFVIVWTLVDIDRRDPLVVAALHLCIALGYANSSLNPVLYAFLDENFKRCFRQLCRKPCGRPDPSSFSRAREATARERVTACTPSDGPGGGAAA

[1] = tested on: gonadotropin-releasing hormone receptor (GnRHR); details: 10 μM; cited from earlier work
DOR chimera KOR-TM1 = DOR chimera KOR-TM1 (Homo sapiens, UniProt P41143+P41145, A58V/A61V/C60F/G73V/L55V/L65V/V68S/V75I); test: Chimera DOR-Tango β-arrestin2 recruitment; type: cell-based; details: 10 μM modulator
DOR WT = DOR WT (Homo sapiens, UniProt P41143); test: 3H-DADLE competition binding; details: binding experiment in allosteric mode
DOR WT, sequence (P41143 whole entry): as the sequence (P41143 whole entry D95A) above, with A95D counted along it

kappa-opioid receptor = details: ref Tracey et al.[45]; cited from earlier work
rat mu-opioid = details: ref Tracey et al.[45]; cited from earlier work
cells = test: Toxicity to cells; type: cell-based, human; details: at 10 μM
mouse delta-opioid = details: ref Tracey et al.[45]; cited from earlier work
DOR S135A3.39 = DOR S135A3.39 (Homo sapiens, UniProt P41143, S135A); test: Mutant DOR-Tango β-arrestin2 recruitment; type: cell-based; details: 10 μM
DOR S135A3.39, sequence (P41143 whole entry S135A, one chain of several): as the sequence (P41143 whole entry D95A) above, with A95D, S135A counted along it

DOR N131V3.35 = DOR N131V3.35 (Homo sapiens, UniProt P41143, N131V); test: Mutant DOR-Tango β-arrestin2 recruitment; type: cell-based; details: 10 μM
DOR N131V3.35, sequence (P41143 whole entry N131V, one chain of several): as the sequence (P41143 whole entry D95A) above, with A95D, N131V counted along it

M5 muscarinic receptor = target: T1, M5 muscarinic receptor (Homo sapiens, UniProt P08912); test: M5-Tango β-arrestin2 recruitment, carbachol dose–response; type: cell-based; details: external Na+ increased to 200 mM
T1 sequence (P08912 1-532): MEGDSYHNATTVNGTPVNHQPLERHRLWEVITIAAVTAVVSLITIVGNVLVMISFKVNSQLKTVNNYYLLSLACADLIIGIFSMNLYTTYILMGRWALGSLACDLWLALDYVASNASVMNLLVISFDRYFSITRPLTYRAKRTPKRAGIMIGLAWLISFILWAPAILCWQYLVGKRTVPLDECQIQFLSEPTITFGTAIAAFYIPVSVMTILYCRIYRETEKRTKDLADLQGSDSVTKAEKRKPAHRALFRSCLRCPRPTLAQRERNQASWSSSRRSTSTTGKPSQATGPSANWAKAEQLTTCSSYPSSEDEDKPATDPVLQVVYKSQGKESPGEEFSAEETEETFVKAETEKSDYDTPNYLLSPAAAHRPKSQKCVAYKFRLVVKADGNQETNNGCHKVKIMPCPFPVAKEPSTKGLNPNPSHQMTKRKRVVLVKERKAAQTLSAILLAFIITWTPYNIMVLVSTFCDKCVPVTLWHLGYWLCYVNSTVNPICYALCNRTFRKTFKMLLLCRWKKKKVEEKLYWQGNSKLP

M2 muscarinic receptor = target: T2, M2 muscarinic receptor (Homo sapiens, UniProt P08172); test: M2-Tango β-arrestin2 recruitment, carbachol dose–response; type: cell-based; details: external Na+ increased to 200 mM
T2 sequence (P08172 1-466): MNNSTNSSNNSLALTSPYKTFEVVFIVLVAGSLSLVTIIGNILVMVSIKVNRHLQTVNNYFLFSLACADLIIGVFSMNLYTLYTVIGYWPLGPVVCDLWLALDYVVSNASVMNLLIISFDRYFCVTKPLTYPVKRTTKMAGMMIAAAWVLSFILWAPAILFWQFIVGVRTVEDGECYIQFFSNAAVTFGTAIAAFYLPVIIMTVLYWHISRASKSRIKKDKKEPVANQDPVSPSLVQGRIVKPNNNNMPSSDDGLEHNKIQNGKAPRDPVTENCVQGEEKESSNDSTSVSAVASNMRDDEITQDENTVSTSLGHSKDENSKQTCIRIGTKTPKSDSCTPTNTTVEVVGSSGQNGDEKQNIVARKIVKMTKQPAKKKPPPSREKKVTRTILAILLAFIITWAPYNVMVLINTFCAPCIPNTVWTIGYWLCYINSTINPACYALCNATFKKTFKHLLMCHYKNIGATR

M4 muscarinic receptor = target: T3, M4 muscarinic receptor (Homo sapiens, UniProt P08173); test: M4-Tango β-arrestin2 recruitment, carbachol dose–response; type: cell-based; details: external Na+ increased to 200 mM
T3 sequence (P08173 1-479): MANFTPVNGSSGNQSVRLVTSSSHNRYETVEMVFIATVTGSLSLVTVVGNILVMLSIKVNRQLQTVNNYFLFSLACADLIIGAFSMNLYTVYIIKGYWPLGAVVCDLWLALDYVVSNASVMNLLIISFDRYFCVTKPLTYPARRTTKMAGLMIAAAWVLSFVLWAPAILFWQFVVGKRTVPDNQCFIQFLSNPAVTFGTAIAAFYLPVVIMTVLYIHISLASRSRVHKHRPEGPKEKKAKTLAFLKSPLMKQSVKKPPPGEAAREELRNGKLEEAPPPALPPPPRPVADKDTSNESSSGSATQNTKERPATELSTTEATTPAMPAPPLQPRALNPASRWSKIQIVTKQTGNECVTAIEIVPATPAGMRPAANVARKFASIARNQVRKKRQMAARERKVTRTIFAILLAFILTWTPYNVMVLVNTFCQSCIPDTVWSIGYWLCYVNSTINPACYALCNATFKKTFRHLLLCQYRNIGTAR

DOR, sequence (P41143 whole entry): as the sequence (P41143 whole entry D95A) above, with A95D counted along it

NC(N)=Nc1ccc2[nH]c3c(c2c1)C[C@@]1(O)[C@H]2Cc4ccc(O)c5c4[C@@]1(CCN2CC1CC1)[C@H]3O5 [5′-GNTI]
reversal of the agonist activity of EIPA (DOR): reversed

NC(N)=Nc1ccc2c3c([nH]c2c1)[C@@H]1Oc2c(O)ccc4c2[C@@]12CCN(CC1CC1)[C@H](C4)[C@]2(O)C3 [6′-GNTI]
reversal of the agonist activity of EIPA (DOR): reversed

N=C(N)NC(=O)c1nc(Cl)c(N)nc1N [Amiloride, amiloride]
agonist / allosteric activity at DOR (DOR): no activity
affinity (different GPCRs; allosteric modulation on different GPCRs): > 10 µM
concentration with activity in biophysical studies (different GPCRs; most biophysical studies using amiloride): > 100 µM

CN(C)c1nc(N)c(C(=O)NC(=N)N)nc1Cl [DMA, 5-(N,N-dimethyl)amiloride]
agonist / allosteric activity at DOR (DOR): lack of DMA activity

CCN(c1nc(N)c(C(=O)N=C(N)N)nc1Cl)C(C)C [EIPA, 5-(N-ethyl-N-isopropyl)-amiloride]
agonist / allosteric activity at DOR (DOR): significant agonist and positive allosteric modulation (ago-PAM)

NC(N)=NC(=O)c1nc(Cl)c(N2CCCCCC2)nc1N [HMA, 5-(N,N-hexamethylene)amiloride]
modulator properties at mutant (DOR D95A2.50): almost complete loss of original properties
effect of extracellular Na+ on agonistic activity (DOR): slightly increases
functional effect [1]: modest effect
allosteric modulation (PAM) at chimera (DOR chimera KOR-TM1): loss of allosteric modulation (PAM)

CC(C)CN(C)c1nc(N)c(C(=O)N=C(N)N)nc1Cl [MIA, 5-(N-methyl-N-isobutyl)amiloride]
modulator properties at mutant (DOR D95A2.50): almost complete loss of original properties
effect on the Ki of naltrindole toward 3H-DADLE (DOR WT): no effect
agonist / allosteric activity at DOR (DOR): best ago-PAM
effect of extracellular Na+ on agonistic activity (DOR): slightly increases
allosteric modulation (PAM) at chimera (DOR chimera KOR-TM1): loss of allosteric modulation (PAM)

Oc1ccc2c3c1O[C@H]1c4[nH]c5ccccc5c4C[C@@]4(O)[C@@H](C2)N(CC2CC2)CC[C@]314 [Naltrindole, naltrindole]
reversal of the agonist activity of EIPA (DOR): reversed

NC(=Nc1ccccc1)NC(=O)c1nc(Cl)c(N)nc1N [Phenamil, phenamil]
agonist / allosteric activity at DOR (DOR): inactive

N=C(N)NC(=O)c1cnn(-c2cccc3ncccc23)c1C1CC1 [Zoniporide, zoniporide]
interaction (kappa-opioid receptor): no detectable interaction
affinity (rat mu-opioid): 60 nM
modulator properties at mutant (DOR D95A2.50): almost complete loss of original properties
agonist / allosteric activity at DOR (DOR): best PAM without intrinsic agonist activity
toxicity (cells): no toxicity
affinity (mouse delta-opioid): 238 nM
ago-PAM properties at mutant (DOR S135A3.39): increase in the ago-PAM properties
ago-PAM properties at mutant (DOR N131V3.35): increase in the ago-PAM properties
allosteric modulation (PAM) at chimera (DOR chimera KOR-TM1): loss of allosteric modulation (PAM)

C[N+](C)(C)CCOC(N)=O [carbachol]
increase of efficacy (M5 muscarinic receptor): weakly increasing efficacy
increase of efficacy (M2 muscarinic receptor): more than 3 fold
increase of efficacy (M4 muscarinic receptor): more than 3 fold
